{"source": "patent US20250241971A1", "about": "(priority 2022, published 2025)", "key": {"[1]": {"tested_on": "pig jejunum explants"}, "[2]": {"tested_on": "broiler chickens", "details": "in vivo"}, "[3]": {"tested_on": "broiler chickens", "details": "in vivo", "remark": "listed apart in the source"}, "[4]": {"tested_on": "il8 and ifnγ genes", "details": "in vivo"}, "[5]": {"tested_on": "Poultry", "details": "in vivo; cited from earlier work"}, "[6]": {"tested_on": "Ruminants", "details": "in feed; cited from earlier work"}}}
{"smiles": "CC1=C[C@H]2O[C@@H]3[C@H](O)C[C@](C)([C@@]2(CO)[C@H](O)C1=O)[C@]31CO1", "note": "[DON, Deoxynivalenol]", "values": [{"measurement": "number of lesions on the tissue", "setting": "[1]", "value": "increases the number of lesions on the tissue"}, {"measurement": "decrease in villus length", "setting": "[1]; pig", "value": "approximately 35%"}, {"measurement": "lesions in the liver", "setting": "[2]", "value": "induces a strong increase in lesions in the liver"}, {"measurement": "macroscopic appearance of the liver", "setting": "[2]", "value": "appears paler, slightly yellower; a hemorrhagic lesion is clearly visible"}, {"measurement": "size (height) of intestinal villi of the jejunum", "setting": "[3]", "value": "induces a reduction in the size of the intestinal villi of the jejunum"}, {"measurement": "il8 mRNA expression in jejunum", "setting": "[4]", "value": "strong increase"}, {"measurement": "interferon gamma (ifnγ) mRNA expression in jejunum", "setting": "[4]", "value": "strong increase"}, {"measurement": "concentration from which first zootechnical effects are observed", "setting": "[5]", "value": "≥ 5 mg of DON per kilogram of feed"}, {"measurement": "feed concentration up to which little sensitivity appears", "setting": "[6]", "value": "up to 12 mg/kg of feed"}]}
